Earlier results in US20030229111A1, “Naltrexone hydrochloride compositions” (priority 2002, published 2003).

How the values were obtained:
[1] = in vivo, po

In the case of `O=C1CC[C@@]2(O)[C@H]3Cc4ccc(O)c5c4[C@@]2(CCN3CC2CC2)[C@H]1O5` [naltrexone, Naltrexone], the “time within which rapidly absorbed” value [1] is given as ≤ 1 h and the protein binding is given as “approximately 21%”.
